Results from patent publication US12491170B2, “Stable treprostinil prodrugs” (United Therapeutics Corporation, priority 2020, dated 2025).
Like-named read-outs stand apart in the source and are kept apart here.

Experiments:
[1] = Stability in liver microsomes, human; details: for AUC: human
[2] = Stability in liver microsomes, rat
[3] = Stability in liver microsomes, dog
[4] = Stability in human subcutaneous skin homogenate; details: for AUC: human
Method: The pool of skin homogenate was prepared by combining equal volumes of three lots that were tested in the initial skin homogenate lot assessment experiments.
A stock solution of calcein-AM was first prepared at 5 mM in DMSO, followed by a serial dilution into methanol at a concentration of 100 μM. 495 μL of skin homogenate was thawed and warmed to 37° C. A 5 μL aliquot of the 100 μM calcein-AM solution was spiked into the skin homogenate, for a final calcein-AM dosing concentration of 1 μM. After briefly mixing, 150 μL aliquots were removed in triplicate and transferred to 96-well Falcon plates. The plates were placed onto a Thermomixer and maintained at 37° C., with gentle shaking for the duration of the experiment. At each time point (0, 15, 30, 60, and 120 minutes), the plate was removed from the Thermomixer and transferred to a FLUOstar® plate reader, and the formation of calcein (Sigma) was monitored by fluorescence (490/515 nm). Calibration standards of calcein were prepared in distilled water by serial dilutions of a calcein DMSO stock at final concentrations ranging from 1 μM to 1 nM. All samples and standards were read concurrently (Table 13).
For each of the test articles, 495 μL of skin homogenate was added to triplicate centrifuge tubes. To each tube, 5 μL of a 100 μM solution of test article was added, for a final test article dosing concentration of 1 μM. The tubes were placed onto a Thermomixer and maintained at 37° C. with gentle shaking for the duration of the experiment. At each time point (0, 30, 60, and 120 minutes), a 100 μL aliquot was removed from each tube and combined with 200 μL of acetonitrile to stop the stability reaction. The tubes were mixed and centrifuged at 3000 rpm for 10 minutes. Aliquots of supernatant were removed and diluted 1:1 with distilled water containing internal standard (2 μM treprostinil-d4). Calibration standards for the treprostinil analysis were prepared for each test article in a surrogate matrix (supernatant from a mixture of 1:2 human plasma:acetonitrile), at concentrations ranging from 1 μM to 1 nM. Calibration standards were also diluted 1:1 with distilled water containing internal standard. The disappearance of each individual test article was monitored, as well as the formation of treprostinil (Table 14 and Table 15).

[5] = rat
[6] = dog
[7] = Stability in cryopreserved hepatocytes, human; details: for AUC: human
[8] = Stability in cryopreserved hepatocytes, rat; details: for AUC: rat
[9] = Stability in cryopreserved hepatocytes, dog; details: for AUC: dog

Row | SMILES | Trep Concentration 0 min [1] | Trep Concentration 20 min [1] | Trep Concentration 30 min [1] | Trep Concentration 60 min [1] | AUC [1] | Trep Concentration 0 min [2] | Trep Concentration 10 min [2] | Trep Concentration 20 min [2] | Trep Concentration 30 min [2] | Trep Concentration 60 min [2] | Trep Concentration 0 min [3] | Trep Concentration 10 min [3] | Trep Concentration 20 min [3] | Trep Concentration 30 min [3] | Trep Concentration 60 min [3] | AUC [5] | AUC [6] | Trep Concentration 10 min [1] | Trep Concentration (μM) 0 min [7] | Trep Concentration (μM) 15 min [7] | also measured
1 | CCCCC[C@@H](CC[C@@H]1[C@H]2Cc3cccc(OCC(=O)O)c3C[C@H]2C[C@H]1O)OC(=O)[C@@H](N)C(C)C [XXIX] | 0.00482 µM | 0.0168 µM | 0.0173 µM | 0.0265 µM | 1.05 µmol·min/L | 0 µM | 0.00463 µM | 0.00443 µM | 0.0102 µM | 0.0178 µM | 0 µM | 0.012 µM | 0.0177 µM | 0.025 µM | 0.0334 µM | 0.56 µmol·min/L | 1.30 µmol·min/L |  |  |  | Trep Concentration 0 min [4]: 0 µM; Trep Concentration 30 min [4]: 0.0333 µM; Trep Concentration 60 min [4]: 0.0488 µM; Trep Concentration 120 min [4]: 0.0759 µM; AUC [4]: 5.47 µmol·min/L
2 | CCCCCC(CCC1C(O)CC2Cc3c(cccc3OCC(=O)O)CC21)OC(=O)N1CCCCC1 (stereo not shown) [XIX] | 0 µM | 0.014 µM | 0.018 µM | 0.022 µM | 0.83 µmol·min/L | 0 µM | 0 µM | 0 µM | 0 µM | 0 µM | 0 µM | 0 µM | 0 µM | 0 µM | 0 µM | 0.00 µmol·min/L | 0.00 µmol·min/L | 0 µM |  |  | Trep Concentration 0 min [4]: 0 µM; Trep Concentration 30 min [4]: 0 µM; Trep Concentration 60 min [4]: 0 µM; Trep Concentration 120 min [4]: 0 µM; AUC [4]: 0.00 µmol·min/L
3 | CCCCCC(CCC1C(O)CC2Cc3c(cccc3OCC(=O)O)CC21)OC(=O)c1ccc(O)cc1 (stereo not shown) [LXVIII] | 0.201 µM | 0.246 µM | 0.252 µM | 0.178 µM | 13.55 µmol·min/L | 0.00607 µM | 0.00792 µM | 0.0105 µM | 0.0127 µM | 0.0145 µM |  | 0.0246 µM | 0.0324 µM | 0.0375 µM | 0.0382 µM | 0.69 µmol·min/L | 1.98 µmol·min/L | 0.237 µM | 0 µM | 0.147 µM | Trep Concentration (μM) 30 min [7]: 0.194 µM; Trep Concentration (μM) 120 min [7]: 0.17 µM; AUC [7]: 20.45 µmol·min/L; Trep Concentration (μM) 0 min [8]: 0 µM; Trep Concentration (μM) 15 min [8]: 0 µM; Trep Concentration (μM) 30 min [8]: 0.00403 µM; Trep Concentration (μM) 60 min [8]: 0.00545 µM; Trep Concentration (μM) 120 min [8]: 0.00743 µM; AUC [8]: 0.56 µmol·min/L; Trep Concentration (μM) 0 min [9]: 0 µM; Trep Concentration (μM) 15 min [9]: 0.0142 µM; Trep Concentration (μM) 30 min [9]: 0.00583 µM; Trep Concentration (μM) 60 min [9]: 0.00715 µM; Trep Concentration (μM) 120 min [9]: 0.0129 µM; AUC [9]: 1.05 µmol·min/L
4 | CCCCCC(CCC1C(O)CC2Cc3c(cccc3OCC(=O)O)CC21)OC(=O)N1CCC(O)CC1 (stereo not shown) [LVIII] | 0 µM | 0 µM | 0 µM | 0 µM | 0.00 µmol·min/L | 0 µM | 0 µM | 0 µM | 0 µM | 0 µM | 0 µM | 0 µM | 0 µM | 0 µM | 0 µM | 0.00 µmol·min/L | 0.00 µmol·min/L | 0 µM | 0 µM | 0 µM | Trep Concentration (μM) 30 min [7]: 0 µM; Trep Concentration (μM) 60 min [7]: 0 µM; Trep Concentration (μM) 120 min [7]: 0 µM; AUC [7]: 0.00 µmol·min/L; Trep Concentration (μM) 0 min [8]: 0 µM; Trep Concentration (μM) 15 min [8]: 0 µM; Trep Concentration (μM) 30 min [8]: 0 µM; Trep Concentration (μM) 60 min [8]: 0 µM; Trep Concentration (μM) 120 min [8]: 0 µM; AUC [8]: 0.00 µmol·min/L; Trep Concentration (μM) 0 min [9]: 0 µM; Trep Concentration (μM) 15 min [9]: 0 µM; Trep Concentration (μM) 30 min [9]: 0.00519 µM; Trep Concentration (μM) 60 min [9]: 0.00214 µM; Trep Concentration (μM) 120 min [9]: 0.00344 µM; AUC [9]: 0.32 µmol·min/L
5 | CCCCCC(CCC1C(O)CC2Cc3c(cccc3OCC(=O)O)CC21)OC(=O)c1ccc(C)cc1 (stereo not shown) [XLVIII] | 0.202 µM | 0.322 µM | 0.337 µM | 0.352 µM | 19.27 µmol·min/L | 0.0583 µM | 0.0944 µM | 0.0864 µM | 0.0909 µM | 0.123 µM | 0.119 µM | 0.219 µM | 0.322 µM | 0.366 µM | 0.475 µM | 5.76 µmol·min/L | 20.45 µmol·min/L | 0.302 µM | 0 µM | 0.342 µM | Trep Concentration (μM) 30 min [7]: 0.304 µM; Trep Concentration (μM) 60 min [7]: 0.345 µM; Trep Concentration (μM) 120 min [7]: 0.347 µM; AUC [7]: 37.91 µmol·min/L; Trep Concentration (μM) 0 min [8]: 0 µM; Trep Concentration (μM) 15 min [8]: 0.1 µM; Trep Concentration (μM) 30 min [8]: 0.141 µM; Trep Concentration (μM) 60 min [8]: 0.221 µM; Trep Concentration (μM) 120 min [8]: 0.318 µM; AUC [8]: 24.16 µmol·min/L; Trep Concentration (μM) 0 min [9]: 0 µM; Trep Concentration (μM) 15 min [9]: 0.0841 µM; Trep Concentration (μM) 30 min [9]: 0.115 µM; Trep Concentration (μM) 60 min [9]: 0.177 µM; Trep Concentration (μM) 120 min [9]: 0.214 µM; AUC [9]: 18.23 µmol·min/L
